Where a chain is given by its changes, count along the chain named.
Assays:
[1] = target: T1, human ALDH2*2 recombinant mutant enzyme (E487K) (Homo sapiens, UniProt P05091, E504K); test: ALDH2 enzymatic assay (NADH at 340 nm), recombinant mutant enzyme; assay type: biochemical; design: key: −: no activation or inhibition; +: activation less than control 1; ++: activation similar to control 1, within 10%; +++: activation more than control 1 and less than control (compound 161); ++++: activation similar to compound 161, within 10%; details: activation relative to benchmarks control 1 and compound 161
T1 construct: His-tag (pTrcHis vector) (N); made in house; host or cells: E. coli BL21
T1 sequence (P05091 18-517 E504K): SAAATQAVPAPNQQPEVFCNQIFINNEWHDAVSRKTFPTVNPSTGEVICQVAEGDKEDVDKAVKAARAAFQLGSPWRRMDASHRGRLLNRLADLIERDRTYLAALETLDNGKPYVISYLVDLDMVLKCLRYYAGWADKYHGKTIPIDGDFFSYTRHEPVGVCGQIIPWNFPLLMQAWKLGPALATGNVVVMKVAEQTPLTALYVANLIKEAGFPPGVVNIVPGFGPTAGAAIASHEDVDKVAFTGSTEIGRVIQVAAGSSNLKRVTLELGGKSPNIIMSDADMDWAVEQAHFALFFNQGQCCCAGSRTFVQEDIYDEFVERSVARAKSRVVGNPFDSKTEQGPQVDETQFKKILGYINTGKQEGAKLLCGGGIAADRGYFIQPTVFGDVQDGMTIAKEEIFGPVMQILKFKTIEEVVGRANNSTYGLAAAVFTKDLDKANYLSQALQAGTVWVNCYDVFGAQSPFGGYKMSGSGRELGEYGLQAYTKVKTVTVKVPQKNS

Caco-2 permeability = assay type: in vitro ADME; details: human; for Papp A→B: read-out: Caco-2 Papp A-B; for efflux ratio: read-out: Caco-2 Papp B-A/A-B
Experimental: (§1) In vitro ADMET of compounds of the present disclosure was carried out according to known methods in the art. Below are data for certain compounds of the present disclosure.

HLM stability T1/2 = assay type: in vitro ADME; details: human, liver microsomes; read-out: HLM T1/2
Experimental: as §1

Aqueous solubility = assay type: physicochemical
Experimental: as §1

CYP2D6 = CYP2D6 (Homo sapiens, UniProt P10635); test: Cyp inhibition 2D6; assay type: in vitro ADME
Sequence of CYP2D6 (P10635 whole entry): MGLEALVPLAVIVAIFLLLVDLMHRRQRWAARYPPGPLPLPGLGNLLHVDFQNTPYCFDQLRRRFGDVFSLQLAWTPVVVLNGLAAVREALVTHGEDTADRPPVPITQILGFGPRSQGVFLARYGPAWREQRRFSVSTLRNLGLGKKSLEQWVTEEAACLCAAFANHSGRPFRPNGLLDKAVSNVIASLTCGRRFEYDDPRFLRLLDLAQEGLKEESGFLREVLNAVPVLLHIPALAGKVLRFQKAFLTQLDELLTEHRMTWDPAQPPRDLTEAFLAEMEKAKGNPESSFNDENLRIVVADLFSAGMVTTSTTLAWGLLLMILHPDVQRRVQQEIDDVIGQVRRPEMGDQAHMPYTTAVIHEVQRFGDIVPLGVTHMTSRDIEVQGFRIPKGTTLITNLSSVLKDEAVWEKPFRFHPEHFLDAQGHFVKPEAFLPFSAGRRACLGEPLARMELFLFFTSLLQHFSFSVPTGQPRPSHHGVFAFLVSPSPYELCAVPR
Experimental: as §1

LogD (pH 7.4) = assay type: physicochemical
Experimental: as §1

MLM stability T1/2 = assay type: in vitro ADME; details: mouse, liver microsomes
Experimental: as §1

NHPLM stability T1/2 = assay type: in vitro ADME; details: monkey, liver microsomes
Experimental: as §1

Plasma stability, human = assay type: in vitro ADME; details: plasma
Experimental: as §1

CYP2C9 = CYP2C9 (Homo sapiens, UniProt P11712); test: Cyp inhibition 2C9; assay type: in vitro ADME
Sequence of CYP2C9 (P11712 whole entry): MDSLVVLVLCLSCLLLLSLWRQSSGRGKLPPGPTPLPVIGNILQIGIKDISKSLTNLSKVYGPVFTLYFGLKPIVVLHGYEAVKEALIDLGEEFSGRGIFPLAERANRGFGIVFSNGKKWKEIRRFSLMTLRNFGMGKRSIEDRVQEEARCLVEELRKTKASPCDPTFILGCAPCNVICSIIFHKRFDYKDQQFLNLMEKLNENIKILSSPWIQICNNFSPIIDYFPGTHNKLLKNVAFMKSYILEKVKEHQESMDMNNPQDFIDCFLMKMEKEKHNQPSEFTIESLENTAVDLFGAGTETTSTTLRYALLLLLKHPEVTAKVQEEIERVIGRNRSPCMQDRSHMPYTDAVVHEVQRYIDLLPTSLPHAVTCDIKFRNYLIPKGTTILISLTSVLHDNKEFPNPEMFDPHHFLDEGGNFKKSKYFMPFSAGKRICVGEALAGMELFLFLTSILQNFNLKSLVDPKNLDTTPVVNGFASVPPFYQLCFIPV
Experimental: as §1

CYP3A4 = CYP3A4 (Homo sapiens, UniProt P08684); test: Cyp inhibition 3A4; assay type: in vitro ADME; details: 10 μM
Sequence of CYP3A4 (P08684 whole entry): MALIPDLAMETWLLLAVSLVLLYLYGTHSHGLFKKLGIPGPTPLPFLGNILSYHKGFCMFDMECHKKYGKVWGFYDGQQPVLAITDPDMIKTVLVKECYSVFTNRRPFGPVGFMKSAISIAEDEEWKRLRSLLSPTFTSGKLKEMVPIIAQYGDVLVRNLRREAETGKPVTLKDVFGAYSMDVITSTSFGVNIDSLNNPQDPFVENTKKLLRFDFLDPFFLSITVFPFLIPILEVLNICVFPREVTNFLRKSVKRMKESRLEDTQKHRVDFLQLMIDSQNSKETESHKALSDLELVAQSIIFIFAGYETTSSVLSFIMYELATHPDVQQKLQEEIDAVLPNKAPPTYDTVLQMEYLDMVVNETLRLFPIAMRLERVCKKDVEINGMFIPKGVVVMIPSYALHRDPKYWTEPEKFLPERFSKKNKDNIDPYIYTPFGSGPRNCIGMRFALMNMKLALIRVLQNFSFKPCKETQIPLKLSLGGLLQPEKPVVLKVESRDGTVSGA
Experimental: as §1

[2] = Plasma protein binding (PPB), human; assay type: in vitro ADME
Experimental: as §1

[3] = Plasma protein binding (PPB), rat; assay type: in vitro ADME
Experimental: as §1

RLM stability T1/2 = assay type: in vitro ADME; details: rat, liver microsomes
Experimental: as §1

CYP1A2 = target: T2, CYP1A2 (Homo sapiens, UniProt P05177); test: Cyp inhibition 1A2; assay type: in vitro ADME; details: 10 μM
T2 sequence (P05177 1-516): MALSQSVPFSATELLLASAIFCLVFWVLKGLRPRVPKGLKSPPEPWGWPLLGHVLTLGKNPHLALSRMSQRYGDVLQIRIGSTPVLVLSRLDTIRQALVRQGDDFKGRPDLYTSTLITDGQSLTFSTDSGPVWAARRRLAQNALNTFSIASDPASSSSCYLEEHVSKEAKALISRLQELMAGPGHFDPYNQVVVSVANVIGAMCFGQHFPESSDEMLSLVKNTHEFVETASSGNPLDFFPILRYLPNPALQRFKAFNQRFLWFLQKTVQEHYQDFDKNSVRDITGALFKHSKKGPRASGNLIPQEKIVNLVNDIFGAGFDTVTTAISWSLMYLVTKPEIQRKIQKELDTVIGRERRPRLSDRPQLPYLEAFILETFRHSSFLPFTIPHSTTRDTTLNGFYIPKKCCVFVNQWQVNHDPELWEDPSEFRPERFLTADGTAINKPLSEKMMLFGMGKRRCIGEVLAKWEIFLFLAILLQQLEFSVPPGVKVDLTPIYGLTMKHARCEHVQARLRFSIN
Experimental: as §1

Plasma stability, rat = assay type: in vitro ADME
Experimental: as §1

CYP2C19 = CYP2C19 (Homo sapiens, UniProt P33261); test: Cyp inhibition 2C19; assay type: in vitro ADME; details: 10 μM
Sequence of CYP2C19 (P33261 whole entry): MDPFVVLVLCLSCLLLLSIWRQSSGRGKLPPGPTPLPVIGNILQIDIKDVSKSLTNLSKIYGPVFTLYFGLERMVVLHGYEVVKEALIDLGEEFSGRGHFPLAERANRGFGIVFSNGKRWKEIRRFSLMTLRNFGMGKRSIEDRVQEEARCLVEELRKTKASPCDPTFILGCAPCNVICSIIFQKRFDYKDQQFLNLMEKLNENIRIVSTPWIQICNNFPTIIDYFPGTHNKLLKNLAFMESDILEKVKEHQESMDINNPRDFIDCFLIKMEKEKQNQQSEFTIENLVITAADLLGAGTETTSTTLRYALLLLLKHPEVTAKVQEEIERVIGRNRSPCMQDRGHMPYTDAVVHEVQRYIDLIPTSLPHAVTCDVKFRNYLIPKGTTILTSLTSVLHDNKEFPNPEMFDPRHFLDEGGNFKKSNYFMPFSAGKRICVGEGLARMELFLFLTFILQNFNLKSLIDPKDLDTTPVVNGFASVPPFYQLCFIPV
Experimental: as §1

human ALDH2 wild type = target: T3, human ALDH2 wild type (Homo sapiens, UniProt P05091); test: ALDH2 enzymatic assay (NADH at 340 nm), recombinant wild type enzyme; assay type: biochemical; design: key: −: no activation or inhibition; +: activation less than control 1; ++: activation similar to control 1, within 10%; +++: activation more than control 1 and less than control (compound 161); ++++: activation similar to compound 161, within 10%; details: activation relative to benchmarks control 1 and compound 161
T3 construct: His-tag (pTrcHis vector) (N); made in house; host or cells: E. coli BL21
T3 sequence (P05091 18-517): T1 sequence (P05091 18-517 E504K) with K487E

| ALDH2 (mutant) [1] | Papp A→B (Caco-2 permeability) [×10⁻⁶ cm/s] | Papp B→A (Caco-2 permeability) [×10⁻⁶ cm/s] | efflux ratio (Caco-2 permeability) | half-life (HLM stability T1/2) [min] | Aqu. Solu. (Aqueous solubility) [µg/mL] | inhibition at 10 µM (CYP2D6) [%] | logD (LogD (pH 7.4)) | half-life (MLM stability T1/2) [min] | half-life (NHPLM stability T1/2) [min] | Plasma stability Human (Plasma stability, human) [%] | inhibition at 10 µM (CYP2C9) [%] | inhibition at 10 µM (CYP3A4) [%] | fraction unbound [2] | fraction unbound [3] | half-life (RLM stability T1/2) [min] | inhibition at 10 µM (CYP1A2) [%] | Plasma stability Rat (Plasma stability, rat) [%] | inhibition at 10 µM (CYP2C19) [%] | ALDH2 (wild-type) (human ALDH2 wild type) | Compound |
| --- | --- | --- | --- | --- | --- | --- | --- | --- | --- | --- | --- | --- | --- | --- | --- | --- | --- | --- | --- | --- |
| ++ | 16.6 | 11.7 | 0.7 | 21.2 | 12 | 9.1 | 3.4 | 0.753 | 1.57 | 100 | 16.3 | 83.5 | 0.025 | 0.037 | 1.33 | 31.9 | 100 | 72.4 | ++ | O=C(NCc1ccc2c(c1)OCO2)c1c(Cl)cccc1Cl [Control 1, reference compound] |
| ++++ |  |  |  | 2.67 | 5 |  | 3.8 | 0.753 | 0.685 |  |  |  |  |  | 0.753 |  |  |  | ++++ | COc1ccc(CNC(=O)c2c(Cl)cccc2OCC2CC2)cc1F [Compound 135] |
| ++ | 1.22 | 13.1 | 10.7 | 3.85 | 272 | 0.81 | 1.6 | 100 | 51.3 | 100 | -12 | 7.7 | 0.098 | 0.367 | 82.5 | 1.1 | 100 | 3.5 | + | COc1ccc(CNC(=O)c2c(Cl)cc[n+]([O-])c2OCC2CC2)cc1F [Compound 169] |
| + |  |  |  |  |  |  |  |  |  |  |  |  |  |  |  |  |  |  | + | COc1ccc(CNC(=O)c2c(Cl)cc[n+]([O-])c2Cl)cc1F [Compound 168] |
| + |  |  |  |  |  |  |  |  |  |  |  |  |  |  |  |  |  |  | + | O=C(NCc1ccc([N+](=O)[O-])cc1)c1c(Cl)cccc1Br [Compound 128] |
| ++ |  |  |  |  |  |  |  |  |  |  |  |  |  |  |  |  |  |  | ++ | CCSc1nccc(Cl)c1C(=O)NCc1ccc(OC)c(F)c1 [Compound 214] |
| ++ |  |  |  |  |  |  |  |  |  |  |  |  |  |  |  |  |  |  | + | COc1ccc(CNC(=O)c2c(Cl)cccc2Br)cc1F [Compound 106] |

From US9670162B2, “Mitochondrial aldehyde dehyrogenase-2 modulators and methods of use thereof” (The Board of Trustees of the Leland Stanford Junior …, priority 2013, dated 2017)
